The values below come from patent US11891369B2, “Compounds for binding proprotein convertase subtilisin/kexin type 9” (SRX Cardio, LLC, priority 2016, dated 2024).

The target of assay [1] is T1, PCSK9 (Homo sapiens, UniProt Q8NBP7).
T1 construct: host or cells: added to HepG2, HuH7, FL83B or shPCSK9 knockdown lines
Put plainly: LDLR flow cytometric analysis (LDL-R assay). Format: cell-based. To be noted: percentage recovery in the LDL-R assay at 20 uM concentration. From the text:
Cells, such as HepG2, HuH7, FL83B, or a cell line transfected with a short-hairpin PCSK9 knockdown sequence (e.g., HepG2/shPCSK9, HuH7/shPCSK9) can be cultured following routine procedures, such as those described by Benjannet et al., “Effects of the prosegment and pH on the activity of PCSK9: evidence for additional processing events” J Biol Chem. 285(52): 40965-40978 (2010), which is hereby incorporated by reference in its entirety.
LDLR levels can be measured using flow cytometry or fluorescence activated cell sorting (FACS) using protocols adapted from Benjannet et al., “Effects of the prosegment and pH on the activity of PCSK9: evidence for additional processing events” J Biol Chem. 285(52): 40965-40978 (2010) and “Composition and Methods of Use of Small Molecules as Binding Ligands for the Modulation of Proprotein Convertase Subtilisin/Kexin Type 9 (PCSK9) Protein Activity” (WO2016029037), which are incorporated by reference in their entirety.
Cells, such as HepG2, HuH7, FL83B, or a cell line transfected with a short-hairpin PCSK9 knockdown sequence such as HepG2/shPCSK9, HuH7/shPCSK9, or FL83B/shPCSK9 are cultured in media composed of complete, high glucose DMEM (Invitrogen) with 10% fetal bovine serum (Life Technologies), supplemented with penicillin-streptomycin (Life Technologies). Cells are plated in a 24-well plate, at 125 k cells/well, and cultured at 37° C. for 12-24 h. Culture media is removed and replaced with fresh culture media or culture media plus a predetermined amount of recombinant PCSK9 (final 5 ug/ml). Wells evaluating test compounds are dosed with concentrations ranging from 0 nM to 100 uM.
Following an incubation period of 4-6 hours at 37° C., the media is removed and the cells are rinsed by adding 0.5 ml of complete D-PBS (i.e., Dulbecco's phosphate buffered saline (D-PBS, Life Technologies) supplemented with 0.5% bovine serum albumin (BSA, Sigma) and 1 g/L glucose (Sigma)). The wash media is carefully aspirated, and cells are released from the plate using 200 uls of TrypLE Express (Life Technologies) by incubating for 5-10 minutes at 37° C. The TyrpLE-Cell suspension is inactivated by adding 100 uls of Fetal Bovine Serum, transferred to a v-bottom plate, and centrifuged at 250× gravity for 5 minutes. Following centrifugation, the supernatant is aspirated and the cell pellet is resuspended in 100 uL of complete D-PBS, and centrifuged at 250× gravity for 5 minutes. Following centrifugation, the supernatant is aspirated and the cell pellet is resuspended in 100 uls of antibody staining solution (600 uls of anti-LDLr-PE in complete D-PBS) and incubated on ice, protected from light, for 30 minutes. The cells are then pelleted by centrifugation, resuspended in 100 uL of 4′,6-Diamidino-2-phenylindole (DAPI, Cayman Chemical) or 7-aminoactinomycin D (7AAD, Life Technologies) staining solution to measure cell viability
Cells are analyzed for both cell viability marker (dead cells) and LDLR in live cells using a flow cytometer per the manufacturer's operating manual. Cells incubated with small molecule compounds that are inhibitors of PCSK9 will be expected to show increased amounts of LDLR, relative to control (no compound) specimens, and cells incubated with small molecule compounds that are activators of PCSK9 will be expected to show decreased amounts of LDLR relative to control (no compound) specimens.

Assay [2] has as its target T1, PCSK9. Put plainly: Cellular DiI-LDL uptake analysis (LDL-uptake assay). To be noted: for DiI-LDL uptake (% of control) at 20 µM: read-out: LDL-uptake % of control; for remaining activity at 20 µM: percentage uptake of DiI-LDL over the control at 20 uM concentration. It counts as cell-based. The protocol:
Cells, such as HepG2, HuH7, FL83B, or a cell line transfected with a short-hairpin PCSK9 knockdown sequence such as HepG2/shPCSK9, HuH7/shPCSK9, or FL83B/shPCSK9 are plated and cultured at 37° C. for 12-24 h. Culture media is removed and replaced with fresh lipoprotein-depleted culture media supplemented with 5 ug/mL of DiI-LDL (Kalen Biomedical) or lipoprotein-depleted culture media supplemented with 5 ug/mL of DiI-LDL plus a predetermined concentration of recombinant PCSK9, for example a 10 nM final concentration of PCSK9. Lipoprotein-depleted culture media can be composed of DMEM (Invitrogen) with 10% lipoprotein-depleted fetal bovine serum (Kalen Biomedical) and supplemented with penicillin-streptomycin (Life Technologies). Cells are dosed with small molecule test compounds at doses ranging from 0 nM to 100 uM.
The lipoprotein-depleted media is removed and cells rinsed three times with phosphate buffered saline. A final volume of phosphate buffered saline is added back to the wells. The DiI fluorescence is measured with a plate reader using an exciting wavelength of 550 nm and the resulting emission at 590 nm is measured. The Hoechst stain fluorescence is measured with a plate reader using an exciting wavelength of 355 nm and the resulting emission at 460 nm is measured.
Cells are analyzed by for both Hoechst stain (DNA content) and DiI-LDL fluorescence.

T1 sequence (Q8NBP7 153-692): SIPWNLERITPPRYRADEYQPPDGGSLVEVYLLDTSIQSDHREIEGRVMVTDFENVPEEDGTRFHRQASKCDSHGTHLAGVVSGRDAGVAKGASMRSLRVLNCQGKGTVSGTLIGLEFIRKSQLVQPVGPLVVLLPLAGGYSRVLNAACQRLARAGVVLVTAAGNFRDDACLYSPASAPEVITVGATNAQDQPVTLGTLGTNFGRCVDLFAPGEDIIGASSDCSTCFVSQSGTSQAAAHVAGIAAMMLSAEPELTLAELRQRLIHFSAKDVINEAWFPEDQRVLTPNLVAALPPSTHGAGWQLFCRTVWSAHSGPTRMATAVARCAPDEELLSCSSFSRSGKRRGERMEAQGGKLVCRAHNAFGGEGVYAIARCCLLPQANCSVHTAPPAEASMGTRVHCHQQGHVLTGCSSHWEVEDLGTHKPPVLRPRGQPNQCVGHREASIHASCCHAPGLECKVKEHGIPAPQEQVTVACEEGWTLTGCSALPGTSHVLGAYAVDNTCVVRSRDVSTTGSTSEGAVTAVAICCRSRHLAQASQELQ

On to `FC(F)(F)c1ccc(N2CCNCC2)c2ccccc12` [compound 1, 1-(4-(Trifluoromethyl)naphthalen-1-yl)piperazine], for which, at PCSK9 [1], the “LDL-R % Recovered” value is on record as “+++ (>30% recovery)”. Further, the DiI-LDL uptake (% of control) at 20 µM at PCSK9 [2] is more than 150%.
Regarding `c1ccc2c(N3CCNCC3)ccc(OC3CCNCC3)c2c1` [compound 4, 1-(4-(Piperidin-4-yloxy)naphthalen-1-yl)piperazine], the “LDL-R % Recovered” value at PCSK9 [1] was “+ (0-10% recovery)”. The remaining activity at 20 µM at PCSK9 [2] was more than 150%.
The like results for `c1ccc2c(N3CCNCC3)ccc(NC3CCNCC3)c2c1` [compound 5, N-(4-(Piperazin-1-yl)naphthalen-1-yl)piperidin-4-amine] were, in that order, “++ (10-30% recovery)” and less than 100%.
In the same order, the values of `O=S(=O)(c1ccc(N2CCNCC2)c2ccccc12)C1CCNCC1` [compound 7, 1-(4-(Piperidin-4-ylsulfonyl)naphthalen-1-yl)piperazine] are “+ (0-10% recovery)” and more than 150%.
The like results for `O=C(c1ccc(N2CCNCC2)c2ccccc12)N1CCNCC1` [compound 8, Piperazin-1-yl(4-(piperazin-1-yl)naphthalen-1-yl)methanone] were, in that order, “+ (0-10% recovery)” and more than 150%.
On to `NC(=O)N1CCN(c2cccc3ccccc23)CC1` [compound 11, 4-(Naphthalen-1-yl)piperazine-1-carboxamide], for which, at PCSK9 [1], the “LDL-R % Recovered” value is listed as “+ (0-10% recovery)”. Further, the DiI-LDL uptake (% of control) at 20 µM on PCSK9 [2] is less than 100%.
Turning to `O=S(=O)(c1ccc(C2CCNCC2)c2ccccc12)C1CCNCC1` [compound 23, 4-((4-(Piperidin-4-yl)naphthalen-1-yl)sulfonyl)piperidine], on PCSK9 [1], the “LDL-R % Recovered” value was “+ (0-10% recovery)”. Further, at PCSK9 [2], the remaining activity at 20 µM was more than 150%.
Consider `Cc1ccc(C2CCNCC2)c2ccccc12` [compound 43, 4-(4-Methylnaphthalen-1-yl)piperidine], for which, on PCSK9 [1], the “LDL-R % Recovered” value was “++ (10-30% recovery)”. Moreover, the remaining activity at 20 µM at PCSK9 [2] is more than 150%.
In the same order, the values of `O=S(=O)(Nc1ccccc1)c1ccc(N2CCNCC2)c2ccccc12` [compound 73, N-phenyl-4-(piperazin-1-yl)naphthalene-1-sulfonamide] are “+ (0-10% recovery)” and 100 to 150%.
With `c1ccc2c(N3CCNCC3)cccc2c1` [compound 107, 1-(naphthalen-1-yl)piperazine], the “LDL-R % Recovered” value at PCSK9 [1] is listed as “++ (10-30% recovery)”. The DiI-LDL uptake (% of control) at 20 µM on PCSK9 [2] is more than 150%.
